Data reported in patent US20090004683A1, “Indicator Agent for Noninflammatory Stress Response and Use Thereof” (priority 2004, published 2009).

Tests used:
IL-18 = assay: Plasma IL-18 level in restraint stress mice (ELISA); assay type: in vivo, mouse; details: given i.p. during restraint (Ac-YVAD-CHO 200 μM/50 μl, Z-FA-fmk 100 μM/50 μl, SB-203580 100 μg, SOD-1 20 U, DPI 30 μg)
Procedure: (§1) For restraint stress, each mouse was kept in a restrainer (a round plastic tube 27 mm in diameter) for 1, 3 or 6 hours, and IL-18 levels were measured. Regarding the analysis of IL-6, each mouse was restrained as described above, and then housed in the starting cage for 6 hours, after which a measurement was performed.
After restraint, each mouse was anesthetized with diethyl ether, and blood was drawn into an EDTA-containing tube. Plasma was separated by centrifugation at 4° C. and 10000×g for 10 minutes, and stored at −80° C. IL-18 and IL-6 were analyzed by ELISA using Quantikine™ immunoassay kit (R&D Systems) and OptEIA™ (BD-Pharmingen), respectively.
(§2) The anti-ACTH antiserum (50 μl, 1:1), dexamethasone (1 ng/50 μl PBS(−)) or the anti-IL-18 antibody (50 μl, 1:1) was administered intraperitoneally to each mouse; after 10 minutes elapsed, the animal was kept in a restraint tube for 6 hours. Synthetic ACTH (250 μg/50 μl PBS(−)) was injected to the left leg; after 6 hours elapsed, the mice were subjected to the experiment.
(§3) Each mouse was kept in a restrainer for 1 hour, and Ac-YVAD-CHO (200 μM/50 μl PBS(−)), Z-FA-fmk (100 μM/50 μl PBS(−)) and SB-203580 (100 μg/50 μl PBS(−) per mouse) were administered intraperitoneally. 1 and 3 hours after the start of restraint, SOD-1 (20 U) and DPI (30 μg) were administered intraperitoneally to the mouse, and samples were analyzed by Western blotting.

IL-18 precursor = assay: IL-18 (precursor) level in the adrenal of restraint stress mice; assay type: in vivo, mouse; details: given i.p. during restraint
Procedure: as §1, §2, §3
Western blot analysis of IL-18 and phosphorylated P38MAP kinase in adrenal tissue was performed as described below. […] Procaspase-11 and activated P38 MAP kinase were quantified using a Science Lab 99 image analysis system (manufactured by Fujifilm).

caspase-1 = target: T1, caspase-1 (Mus musculus, UniProt P29452); assay: Caspase-1 activity in the adrenal of restraint stress mice (Ac-YVAD-MCA fluorescent substrate); assay type: in vivo; details: given i.p. during restraint
T1 construct: from tissue; host or cells: mouse adrenal (homogenate)
T1 sequence (P29452 119-296 limits assumed): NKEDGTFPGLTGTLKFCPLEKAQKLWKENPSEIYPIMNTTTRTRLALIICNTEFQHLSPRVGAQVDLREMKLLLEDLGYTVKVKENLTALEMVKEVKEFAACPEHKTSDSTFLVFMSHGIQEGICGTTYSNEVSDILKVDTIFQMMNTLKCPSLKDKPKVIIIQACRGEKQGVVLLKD
T1 sequence (P29452 315-402 limits assumed): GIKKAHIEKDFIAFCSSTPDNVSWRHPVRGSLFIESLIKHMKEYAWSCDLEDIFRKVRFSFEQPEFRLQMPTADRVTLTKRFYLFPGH
Procedure: as §3
Caspase-1 activity in the adrenal was measured using a caspase assay kit (manufactured by BD-Pharmingen). Describing briefly, a homogenate of adrenal tissue was incubated with Ac-YVAD-MCA (acetyl-L-tyrosyl-L-valyl-L-alanyl-L-aspartic acid 4-methyl-coumaryl-7-amide), which is a fluorescent substrate for caspase-1, and the MCA leaving from the aforementioned substrate was measured using a fluorescence plate reader (excitation wavelength 380 nm, irradiation wavelength 420-460 nm).

[1] = system: phosphorylated (Thr180/Tyr182) P38 MAP kinase; assay: Phosphorylated P38MAP kinase in the adrenal of restraint stress mice (Western blotting); assay type: in vivo, mouse; details: SOD-1 20 U i.p. 1 and 3 hours after start of restraint, FIG. 4A
Procedure: as §3
Western blot analysis of IL-18 and phosphorylated P38MAP kinase in adrenal tissue was performed as described below. The adrenal tissue was homogenized in an immunoprecipitation (IP) buffer solution (50 mM Tris pH 7.4, 150 mM NaCl, 0.5% NP-40 and 0.5% sodium deoxycholate) containing a protease inhibitor mixture (manufactured by Roche Diagnostics) using a Polytron homogenizer. The homogenate obtained (100 μg protein) was pre-clarified using protein A/G agarose (Exalpha Biologicals, Inc.), incubated with the anti-mouse IL-18 monoclonal antibody or the anti-phosphorylated (Thr180/Tyr182) P38 MAP kinase antibody and protein A/G agarose (50 μl), and centrifuged (at 13000×g for 25 minutes, 4° C.). The precipitate was boiled, and the adrenal protein was recovered, electrophoresed in 10-20% SDS-polyacrylamide gradient gel, and electrically transferred to a Hybond ECL (manufactured by Amersham) nitrocellulose membrane. The aforementioned membrane was incubated with an antibody (IL-18, phosphorylated (Thr180/Tyr182) P38 MAP kinase, caspase-1 or caspase-11), and the reacted protein was detected using an ECL plus system (manufactured by Amersham biosciences). Procaspase-11 and activated P38 MAP kinase were quantified using a Science Lab 99 image analysis system (manufactured by Fujifilm).

[2] = system: Primary culture human skin keratinocytes; assay: IL-18 release from keratinocytes with paraquat stimulation; assay type: cell-based; details: keratinocytes, 1 μM paraquat 15 minutes; SOD 1-20 U/ml or water-soluble vitamin E 100 nM-10 mM/ml
Procedure: Primary culture human skin keratinocytes (keratinocytes) were cultured in a basal medium for keratinocytes contained in petri dishes for cell culture 6 cm in diameter at 1.0-2.0×10^6/dish. This was cultured in the aforementioned medium containing 1 μM of paraquat, which is an active oxygen generator, for 15 minutes, after which the medium was exchanged with a paraquat-free medium, and the cells were further cultured for 1 hour, after which the medium was collected, and the concentration of IL-18 protein in the medium was measured.

Synovial membrane tissue = assay: IL-18 release from synovial membrane tissue with paraquat stimulation; assay type: cell-based, human; details: synovial membrane tissue of articular rheumatism patient, 100 nM paraquat 15 minutes; SOD 1-20 U/ml
Procedure: Synovial membrane tissue collected from the articular synovial membrane at a lesion site of an articular rheumatism patient was subjected to tissue culture in an RPMI-1640 medium containing 10% fetal bovine serum by the method of Tanaka et al. (Tanaka M, Harigai M, Kawaguchi Y, Ohta S, Sugiura T, Takagi K, Ohsako-Higami S, Fukasawa C, Hara M, Kamatani N., J. Rheumatol. 2001 August; 28(8):1779-87). The medium was exchanged with the aforementioned medium containing 100 nM of paraquat, which is an active oxygen generator, and the cells were cultured for 15 minutes, after which the medium was exchanged with a paraquat-free medium, and the cells were further cultured for 1 hour, after which the medium was collected, and the concentration of IL-18 protein in the medium was measured.

“SOD: superoxide dismutase (SOD)-1 purchased from Sigma; active oxygen eliminator” was tested, and the “stress-induced increase in plasma IL-18 level” value (IL-18) was “reduced”, the “IL-18 precursor protein level in the adrenal” value (IL-18 precursor) was “did not reduce” and the “stress-induced increase in caspase-1 activity in the adrenal” value (caspase-1) was “reduced”. For the same substance, the “inhibition of the phosphorylation of P38MAP kinase in the adrenal” value [1] was “about 70%”, the “activation and release of IL-18 into the medium” value [2] was “suppressed” and the “activation and release of IL-18 into the medium” value (Synovial membrane tissue) was “suppressed”.
